Drawing on ChEMBL document CHEMBL1130419, “8-(1H-imidazol-1-yl)-7-nitro-4(5H)-imidazo[1,2-alpha]quinoxalinone and related compounds: synthesis and structure-activity relationships for the AMPA-type non-NMDA receptor” (J Med Chem, 1997), this text covers Ki and IC50 for 17 molecules.

Usually Ki stands for a measure of affinity in units of concentration, obtained from inhibition or displacement. For orientation: IC50 means the concentration needed to halve the response being measured.

Assay [1] has as its target T1, Glutamate receptor ionotropic, AMPA (Rattus norvegicus, UniProt P19490+P19491+P19492+P19493). The assay can be described thus: Inhibition of [3H]AMPA binding to Ionotropic glutamate receptor from rat whole brain.
The species entered for assay [2] is Rattus norvegicus. The assay can be described thus: The compound was tested for anti-KA-Induced Neurotoxicity in rat primary hippocampal cultures. The format is functional. Particulars: Hippocampus.
Assay [3] deals with Glutamate NMDA receptor. Nature of the assay: The compound was tested for its ability to inhibit [3H]Glu binding to N-methyl-D-aspartate glutamate receptor from rat whole brain.
Assay [4] has as its target Glutamate NMDA receptor. The assay can be described thus: The compound was tested for its ability to inhibit [3H]Gly binding to N-methyl-D-aspartate glutamate receptor from rat whole brain.
The target of assay [5] is T1, Glutamate receptor ionotropic, AMPA. The assay can be described thus: The compound was tested for its ability to inhibit [3H]AMPA binding to Ionotropic glutamate receptor AMPA from rat whole brain.
For assay [6], the target named is Glutamate NMDA receptor. The assay can be described thus: The compound was tested for its ability to inhibit [3H]Gly binding to N-methyl-D-aspartate glutamate receptor from rat whole brain.
For assay [7], the species on record is Rattus norvegicus. The assay can be described thus: The compound was tested for anti-KA-Induced Neurotoxicity in rat primary hippocampal cultures. The format is functional. Particulars: Hippocampus.

Molecules are shown by their SMILES.

Molecule `CCc1cnc2c(O)nc3cc([N+](=O)[O-])c(-n4ccnc4)cc3n12` returned a Ki in assay [1] of 20 nM. That is a double-digit nanomolar value. Turning to `O=[N+]([O-])c1cc2nc(O)c3nncn3c2cc1-n1ccnc1`, the Ki in assay [1] was 190 nM. Same read-out and setting: to `CCC1CN=C2C(=O)Nc3cc([N+](=O)[O-])c(-n4ccnc4)cc3N21` (configuration not stated) belongs 150 nM. Molecule `NS(=O)(=O)c1cccc2c1c([N+](=O)[O-])cc1nc(O)c(O)nc12` [NBQX] displayed an IC50 in the assay listed under Rattus norvegicus [2] of 380 nM. `CCCn1c(=O)c(=O)[nH]c2cc([N+](=O)[O-])c(-n3ccnc3)cc21` gave a Ki in assay [1] of 130 nM. Regarding `O=[N+]([O-])c1cc2nc(O)c3nccn3c2cc1-n1ccnc1`, the Ki was 57 nM in assay [1], greater than 300000 nM at Glutamate NMDA receptor [3] and greater than 300000 nM at Glutamate NMDA receptor [4]. Moreover, the IC50 in the assay filed under Rattus norvegicus [2] turned out to be 300 nM. Regarding `CCCCc1nnc2c(O)nc3cc([N+](=O)[O-])c(-n4ccnc4)cc3n12`, affinity in assay [5] was put at a Ki of 70 nM. In assay [1], `Cc1nccn1-c1cc2nc(O)c(O)nc2cc1[N+](=O)[O-]` came in with a Ki of 390 nM. On the same count and under the same terms, then `CCc1nnc2c(O)nc3cc([N+](=O)[O-])c(-n4ccnc4)cc3n12`, with 48 nM. Same read-out and setting: then `CCCc1nnc2c(O)nc3cc(-n4ccnc4)c([N+](=O)[O-])cc3n12`, with 6600 nM. `CCCc1nnc2c(O)nc3cc([N+](=O)[O-])c(-n4ccnc4)cc3n12` registered a Ki in assay [5] of 99 nM. In assay [1], `O=C1Nc2cc(-n3ccnc3)c([N+](=O)[O-])cc2C1=O` had a Ki greater than 100000 nM. As for `O=c1[nH]c2cc(-n3ccnc3)c([N+](=O)[O-])cc2[nH]c1=O` [YM-90K], in the assay filed under Rattus norvegicus [2], the IC50 is 810 nM. Consider `Oc1nc2cc(C(F)(F)F)c(-n3ccnc3)cc2n2ccnc12`, for which the affinity in assay [1], expressed as Ki, was 66 nM. Also, in the assay filed under Rattus norvegicus [2], the IC50 was 320 nM.

Consider `Cc1nnc2c(O)nc3cc([N+](=O)[O-])c(-n4ccnc4)cc3n12`, for which the Ki in assay [1] was 96 nM. For `O=c1[nH]c2cc([N+](=O)[O-])c(-n3ccnc3)cc2n(O)c1=O`, at Glutamate NMDA receptor [6], the Ki turned out to be 4200 nM. Further, 310 nM corresponded to half-maximal inhibition in the assay listed under Rattus norvegicus [7] (IC50). As for `Cc1nccn1-c1cc2c(cc1[N+](=O)[O-])nc(O)c1ncc(C)n12`, in assay [1], the Ki was greater than 10000 nM.
